The source of these data is patent US11147748B2, “Composition of temporary crown materials” (National Taipei University of Technology, priority 2019, dated 2021).

The nature of data set [1]: three-point bending test (flexural strength, toughness) of the temporary crown material. The settings on record: for toughness (in words): FIG. 5. Type of data set: physicochemical. As for the experimental part: First, the temporary crown material was filled into a stainless steel mold (a length of 25 millimeters (mm), a width of 2 mm and a height of 2 mm). After the temporary crown was completely cured, the crown was immersed in ultrapure water and placed in an oven at 37° C. for 24 hours. […] The flexural strength was calculated by the following formula: […]
wherein F was the force (N) under the maximum load; b was the average width (mm) of the test piece; h was the average thickness (mm) of the test piece; and l was the pitch (mm) between the two lower fulcrums.
In addition, the toughness of the temporary crown is the integral area under the stress-strain curve, in which stress is put on Y-axis and strain is put on X-axis. The unit of the toughness is […]

A further data set deals with fibroblasts (L929). The data set can be described thus: cytotoxicity test (MTT) with extract of the cured temporary crown material. Type of data set: cell-based. The following applies: L929 co-cultured with material extract (0.2 g/ml) for 24 hours and 72 hours; plasticizer in crown material; FIG. 3. The procedure: First, 2 grams (g) of the mixture of the powder reagent and the liquid reagent were taken to be cured and then immersed in 10 ml of MEM culture medium at a temperature of 37° C. for 24 hours. Afterwards, an extract of the mixture was taken, in which the extraction ratio was 0.2 g/ml.
Further, fibroblasts (L929) were seeded in the 96-well plates and incubated for 1 day.
Afterwards, the cell culture media were removed, and then a material extract containing 10% fetal bovine serum (FBS) after filtration and a culture medium without the material extract as the control were added, respectively, and then incubated for 24-72 hours. Subsequently, the culture media were removed again, and then phosphate buffered saline (PBS) washes were performed, followed by PBS removal. The serum-free culture medium was formulated as a reaction reagent of MTT ((3-(4,5-dimethylthiazol-2-yl)-2,5-diphenyltetrazolium bromide)), and the ratio of the culture medium to the MTT solution was 1 mg/ml. Each well plate was added with 50 μl of MTT reagent and then placed in the incubator. After 2 hours, the MTT reagent was removed, and 100 μl of antifreezing agent (DMSO) was added. The 96-well plate was shaken for 30 minutes using a rotary shaker. After the reaction was completed, the absorbance at a wavelength of 570 nm was measured by an ELISA reader. […]

The nature of data set [2]: surface hardness test of temporary crowns (micro hardness tester). Type of data set: physicochemical. The following applies: plasticizer added to temporary crown; load 4.903 N for 10 seconds; FIG. 6. As for the experimental part:
First, the temporary crown material was filled into a stainless steel mold (a diameter of 15 mm and a thickness of 1 mm). After the temporary crown was completely cured, the sample was immersed in ultrapure water and placed in an oven at 37° C. After 24 hours, the sample to be tested was taken out and placed in a micro hardness tester (HMV-2 series), and the load applied to the sample by the diamond indenter was 4.903 N for 10 seconds. Finally, the average length of the diagonal indentation on the surface of the sample was measured to calculate the surface hardness of the temporary crown. The calculation formula was: […]
wherein d is the length of the indentation, F is the load, and g is the gravity constant.

The mark [3] stands for this setting: plasticizer added to temporary crown.
[4] abbreviates: temporary crown with 2% plasticizer.
Where [5] appears, read: temporary crown with 5% plasticizer.
Where [6] appears, read: temporary crown with 10% plasticizer.
The mark [7] stands for this setting: temporary crown with 15% plasticizer.

Structures are written as SMILES. “Also recorded” adds a separate entry of the source. Counter-ions that a name gives are not always drawn.

With `CCCCOC(=O)CC(CC(=O)OCCCC)(OC(C)=O)C(=O)OCCCC` [ATBC, acetyl tributyl citrate], the “flexural strength (in words)” value in data set [1] (plasticizer added to temporary crown, FIG. 4) is “can increase the flexural strength”. Further, the “toughness (in words)” value in data set [1] (setting [3]) is listed as “can increase the toughness”. In data set [1] (setting [4]), this compound displayed an Elongation at break of 7.94%, a Flexural modulus of 2463.34 MPa, a Maximum stress of 85.24 MPa and a Strain of 7.72%. Also, the Toughness in data set [1] (setting [4]) turned out to be 59.89 MPa. In data set [1] (setting [5]), this compound gave an Elongation at break of 8.24%, a Flexural modulus of 2362.61 MPa, a Maximum stress of 81.98 MPa and a Strain of 7.82%. This compound registered a Toughness in data set [1] (setting [5]) of 57.21 MPa. In data set [1] (setting [6]), this compound had an Elongation at break of 6.50%, a Flexural modulus of 2138.92 MPa, a Maximum stress of 70.29 MPa and a Strain of 6.48%. In data set [1] (setting [6]), this compound came in with a Toughness of 28.07 MPa. For the same compound, in data set [1] (setting [7]), the Elongation at break is reported as 5.70%, the Flexural modulus is reported as 1897.78 MPa, the Maximum stress is on record as 55.59 MPa and the Strain amounted to 5.71%. This compound also yielded a Toughness in data set [1] (setting [7]) of 17.39 MPa. Besides, the “cytotoxicity / cell survival rate” value in the data set on fibroblasts (L929) is “less than that of adding plasticizers DBP and TEC; also recorded: less toxicity to cells”.

For `CCCCOC(=O)c1ccccc1C(=O)OCCCC` [DBP, dibutyl phthalate, reference compound], in data set [1] (setting [4]), the Elongation at break was 10.86%, the Flexural modulus is 1215.08 MPa, the Maximum stress was found to be 66.56 MPa and the Strain was 10.75%. Further, the Toughness in data set [1] (setting [4]) is 28.74 MPa. In data set [1] (setting [5]), the Elongation at break came to 11.43%, the Flexural modulus came out at 1199.73 MPa, the Maximum stress was determined as 62.75 MPa and the Strain is listed as 10.75%. The compound also showed a Toughness in data set [1] (setting [5]) of 31.14 MPa. In data set [1] (setting [6]), the Elongation at break was found to be 9.56%, the Flexural modulus is 1083.70 MPa, the Maximum stress is reported as 54.11 MPa and the Strain stood at 9.75%. For the same compound, the Toughness in data set [1] (setting [6]) turned out to be 18.94 MPa. In data set [1] (setting [7]), this compound registered an Elongation at break of 9.68%, a Flexural modulus of 997.11 MPa, a Maximum stress of 46.25 MPa and a Strain of 9.50%. The Toughness in data set [1] (setting [7]) is 17.35 MPa. In addition, the “surface hardness (in words)” value in data set [2] is listed as “contributes to the increase of surface hardness”.

For the compound `CCOC(=O)CC(O)(CC(=O)OCC)C(=O)OCC` [TEC, triethyl citrate], in data set [1] (setting [3]), the “toughness (in words)” value is “can increase the toughness”. In addition, in data set [1] (setting [4]), the Elongation at break was 10.43%, the Flexural modulus is given as 2173.29 MPa, the Maximum stress was 80.70 MPa and the Strain is listed as 8.94%. The Toughness in data set [1] (setting [4]) is 77.26 MPa. Besides, in data set [1] (setting [5]), the Elongation at break is 13.14%, the Flexural modulus was 2308.16 MPa, the Maximum stress was determined as 83.40 MPa and the Strain is on record as 9.20%. In data set [1] (setting [5]), this compound displayed a Toughness of 115.80 MPa. Besides, in data set [1] (setting [6]), the Elongation at break amounted to 7.10%, the Flexural modulus is 2029.32 MPa, the Maximum stress was found to be 69.93 MPa and the Strain is 7.09%. Besides, the Toughness in data set [1] (setting [6]) was 30.88 MPa. In data set [1] (setting [7]), this compound returned an Elongation at break of 5.34%, a Flexural modulus of 1790.09 MPa, a Maximum stress of 46.31 MPa and a Strain of 5.36%. Further, the Toughness in data set [1] (setting [7]) came out at 11.98 MPa. In addition, the “cytotoxicity / cell survival rate” value with fibroblasts (L929) is reported as “not significantly improved”.
